Measured values: paper PMC10341549, “Inhibitory Investigations of Acyl-CoA Derivatives against Human Lipoxygenase Isozymes” (International Journal of Molecular Sciences, 2023)
Entries after “also recorded” stand apart in the source; their conditions may differ.

Key:
Type in all cases: biochemical
h15-LOX-1 [1] = target: T1, h15-LOX-1 (Homo sapiens, UniProt P16050); test: Substrate activity and kinetic parameters with h15-LOX-1
T1 construct: His tag; made in house
T1 sequence (P16050 1-662): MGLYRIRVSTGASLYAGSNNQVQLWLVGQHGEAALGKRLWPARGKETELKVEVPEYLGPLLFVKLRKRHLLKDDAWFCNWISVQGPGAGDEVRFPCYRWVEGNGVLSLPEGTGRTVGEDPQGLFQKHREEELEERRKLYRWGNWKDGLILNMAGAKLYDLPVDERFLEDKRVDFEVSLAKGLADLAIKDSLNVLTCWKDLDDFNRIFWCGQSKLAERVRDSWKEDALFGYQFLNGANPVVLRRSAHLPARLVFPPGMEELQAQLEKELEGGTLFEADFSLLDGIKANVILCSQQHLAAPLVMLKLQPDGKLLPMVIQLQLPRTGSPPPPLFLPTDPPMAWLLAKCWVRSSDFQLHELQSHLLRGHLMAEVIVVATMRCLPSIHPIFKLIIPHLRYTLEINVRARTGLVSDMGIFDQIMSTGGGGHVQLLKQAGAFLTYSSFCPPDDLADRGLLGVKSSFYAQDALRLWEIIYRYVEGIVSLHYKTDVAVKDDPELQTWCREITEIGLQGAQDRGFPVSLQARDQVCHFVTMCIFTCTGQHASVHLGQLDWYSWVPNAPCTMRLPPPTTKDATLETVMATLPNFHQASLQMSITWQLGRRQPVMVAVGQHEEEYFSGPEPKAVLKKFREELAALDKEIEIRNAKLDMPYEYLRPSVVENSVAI

h15-LOX-1 [2] = target: T1, h15-LOX-1; test: as above; conditions: acyl-CoAs tested at 70 µM, change in absorbance at 234 nm
Experimental: Considering that some of these acyl-CoAs could potentially be substrates for LOX isozymes, each acyl-CoA was tested at 70 µM against each LOX isozyme to establish the possibility of catalysis.
The same buffer as used to determine IC50 values for h5-LOX was used for product determination. Turnover was monitored by absorbance at 234 nm.

h15-LOX-2 = target: T2, h15-LOX-2 (Homo sapiens, UniProt O15296); test: Kinetic investigation of oleoyl-CoA (18:1) inhibition of h15-LOX-2
T2 construct: His tag; made in house
T2 sequence (O15296 1-676): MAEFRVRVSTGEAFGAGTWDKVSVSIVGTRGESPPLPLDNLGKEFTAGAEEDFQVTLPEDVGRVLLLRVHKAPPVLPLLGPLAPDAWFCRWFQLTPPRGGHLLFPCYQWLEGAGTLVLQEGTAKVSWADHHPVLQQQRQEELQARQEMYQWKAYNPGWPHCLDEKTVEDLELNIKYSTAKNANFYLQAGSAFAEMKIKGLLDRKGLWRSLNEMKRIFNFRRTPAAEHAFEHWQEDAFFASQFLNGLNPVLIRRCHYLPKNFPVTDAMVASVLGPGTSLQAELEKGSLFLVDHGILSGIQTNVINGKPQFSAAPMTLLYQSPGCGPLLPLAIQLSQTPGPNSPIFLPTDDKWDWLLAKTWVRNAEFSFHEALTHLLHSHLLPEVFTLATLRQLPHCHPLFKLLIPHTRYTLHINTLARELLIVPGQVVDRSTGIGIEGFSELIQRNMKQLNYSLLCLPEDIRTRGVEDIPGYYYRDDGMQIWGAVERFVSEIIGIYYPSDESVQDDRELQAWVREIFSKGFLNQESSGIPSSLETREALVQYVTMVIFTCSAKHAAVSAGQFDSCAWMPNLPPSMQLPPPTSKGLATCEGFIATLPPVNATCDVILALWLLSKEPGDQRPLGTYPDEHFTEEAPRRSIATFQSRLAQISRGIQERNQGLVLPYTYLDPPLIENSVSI
Experimental: (1) 1/v=(αKM/kcat)[([I]+Ki)/(β[I]+αKi)]×1/[S]+1/kcat×[([I]+αKi)/(β[I]+αKi)] (2) KM(app)=αKM[([I]+Ki)/[…]] (3) kcat/KM=(kcat/αKM)[(β[I]+αKi)/([I]+Ki)] (4) kcat=kcat[(β[I]+αKi)/([I]+αKi)]
These two parameters were then utilized to fit Equation (3) relative to kcat/KM (app), which yielded a β value of 0.26 +/− 0.23 (Figure 2). Given the high error for the β value, β was also determined by applying the values for α and Ki from the KM (app) plot to Equation 4 and fitted to the kcat data (Figure 3). This fit yielded a β value of 0.30 +/− 0.07, consistent with the Equation 3 fit but with a lower error value. These kinetic values indicate hyperbolic allostery, α > 1 (K-type inhibition) and β < 1 (V-type inhibition), with the kinetic change being equally observed in both KM (α = 3.2 +/− 1) and kcat (β = 0.30 +/− 0.07). […] It should be noted that the Ki values from our hyperbolic fits (82 +/− 70 nM) were dramatically lower than those determined from IC50 measurements (620 ± 60 nM), which is consistent with the more accurate nature of the hyperbolic fits relative to the IC50 fits, due to the oversimplification of the IC50 analysis.
The reactions were carried out in 25 mM HEPES buffer (pH 7.5), 0.01% Triton X-100. […] Reactions were performed at 22 °C in a 1 cm^2 quartz cuvette containing 2 mL of the according buffer for no longer than 2 min to avoid any cleavage of the acyl-coenzyme A. Using a Cary-UV Vis spectrophotometer, the fastest rates over 15 s intervals were recorded. Kinetic values were obtained by plotting the rate against the substrate concentration, followed by a hyperbolic saturation curve fit. The saturation curve fits were performed in triplicate and on separate days to ensure there was no bias. The equations used to find kinetic values were from previous studies.

[3] = h15-LOX-1, compared with published values [31]

| SMILES | Km (h15-LOX-1 [1]; as substrate of h15-LOX-1, 22 °C) [µM] | kcat (h15-LOX-1 [1]; as substrate of h15-LOX-1, 22 °C, listed as linoleoyl-CoA) | kcat (h15-LOX-1 [1]; as substrate of h15-LOX-1, 22 °C, listed as linoleoyl-CoA (18:2)) [s⁻¹] | kcat fold less than free linoleic acid (h15-LOX-1 [1]; [3]) [fold] | kcat/KM fold less than free linoleic acid (h15-LOX-1 [1]; [3]) [fold] | Substrate activity with h15-LOX-1 (h15-LOX-1 [2]) | Substrate activity with h15-LOX-1 (h15-LOX-1 [2]; listed as linoleoyl-CoA (18:2)) | Type of inhibition of h15-LOX-2 (h15-LOX-2) | β (the change in kcat), Equation 4 fit (h15-LOX-2; fit of kcat data) | β (the change in kcat), Equation 3 fit (h15-LOX-2; fit of kcat/KM (app)) | Ki (h15-LOX-2; h15-LOX-2, substrate AA, pH 7.5, 22 °C, read-out: Ki (allosteric, hyperbolic fit of KM (app), Equation 2)) [nM] |
| --- | --- | --- | --- | --- | --- | --- | --- | --- | --- | --- | --- |
| CCCCC/C=C\C/C=C\CCCCCCCC(=O)SCCNC(=O)CCNC(=O)[C@H](O)C(C)(C)COP(=O)(O)OP(=O)(O)OC[C@H]1O[C@@H](n2cnc3c(N)ncnc32)[C@H](O)[C@@H]1OP(=O)(O)O [Linoleoyl-CoA (18:2), linoleoyl-CoA] | 12 | 7.5 (0.4) s^−1 | 7.5 ± 0.4 | 1.3 | 7 | (Substrate) | substrates; also recorded: rapid substrate |  |  |  |  |
| CCCCCCCC/C=C\CCCCCCCC(=O)SCCNC(=O)CCNC(=O)[C@H](O)C(C)(C)COP(=O)(O)OP(=O)(O)OC[C@H]1O[C@@H](n2cnc3c(N)ncnc32)[C@H](O)[C@@H]1OP(=O)(O)O [Oleoyl-CoA (18:1), oleoyl-coenzyme A (18:1)] |  |  |  |  |  |  |  | allosteric inhibition (i.e., partial inhibition) | 0.30 +/− 0.07 | 0.26 +/− 0.23 | 82 |
